Counter-ions that a name gives are not always drawn.

Experimental findings from patent US20090215857A1 (Pfizer Products Inc., priority 2005, published 2009) are described below.

For assay [1], the target named is T1, human serotonin transporter (Homo sapiens, UniProt P31645).
T1 construct: expressed in transfected cells; host or cells: HEK-293
Description: hSERT receptor binding ([125I]-RTI-55 radioligand). To be noted: membranes of HEK-293 cells transfected with human serotonin transporter cDNA; 50 pM [125I]-RTI-55; IC50 converted by Cheng-Prusoff; read-out: SERT Ki. A digest of the protocol: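 Ki values derive via Cheng-Prusoff from IC50s of displacement of 50 pM [125I]-RTI-55 binding to transfected HEK-293 membranes, 90 min at room temperature in pH 7.4 Krebs-HEPES buffer. Compounds spanned 10^−12 to 10^−5 M, in duplicate; nonspecific binding was set with 10 μM citalopram.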

Assay [2] deals with capsaicin-induced mechanical allodynia. Description: rat model of capsaicin-induced mechanical allodynia. The format is in vivo. The settings on record: male Sprague-Dawley rats; 10 mg/kg subcutaneously; PWT 1 hour after single dose; mean of eight animals, normalized for vehicle. On the procedure: Compounds of the present invention may be assayed for their ability to alleviate capsaicin-induced mechanical allodynia in a rat (e.g., Sluka (2002) J of Neuroscience, 22(13): 5687-5693). For example, a rat model of capsaicin-induced mechanical allodynia was carried out as follows:
On day 0, male Sprague-Dawley rats (˜150 g) in the dark cycle were placed in suspended wire-bottom cages and allowed to acclimate for 0.5 hour in a darkened, quiet room. The day 0 paw withdrawal threshold (PWT) was determined on the left hind paw by Von Frey hair assessment using the Dixon up and down method. After assessment, the plantar muscle of the right hind paw was injected with 100 μl capsaicin (0.25% (w/v) in 10% ethanol, 10% Tween 80, in sterile saline). On day 6 the PWT of the left hind paw (contralateral from injection site) was determined for each animal. Animals from the day 6 prereads with PWT ≦11.7 g were considered allodynic responders and were regrouped so that each cage had similar mean PWT values. On day 7, responders were dosed subcutaneously with 10 mg compound/kg body weight, or with vehicle alone. The vehicle was phosphate buffered saline containing 2% Cremophor® EL (BASF). The contralateral PWT values were determined at 1 hour after the single dose, with the investigator blinded to the dosing scheme.
For each animal, the day 6 PWT value was subtracted from the 1 hour PWT value to give a delta PWT value that represents the change in PWT due to the 1 hour drug treatment. In addition, the day 6 PWT was subtracted from the day 0 PWT to give the baseline window of allodynia present in each animal.
The mean percent Inhibition of allodynia values (for eight animals assayed for each compound)+/−the standard error of the mean (SEM) are shown in Table 15.

Assay [3] has as its target T2, human norepinephrine transporter (Homo sapiens, UniProt P23975).
T2 construct: expressed in transfected cells; host or cells: HEK-293
Description: hNET receptor binding ([125I]-RTI-55 radioligand). The settings on record: membranes of HEK-293 cells transfected with human norepinephrine transporter cDNA; 50 pM [125I]-RTI-55; IC50 converted by Cheng-Prusoff; read-out: NET Ki. A digest of the protocol:
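Membranes from HEK-293 cells expressing human NET were incubated 90 min at room temperature with 50 pM [125I]-RTI-55 and test compound (10^−5M to 10^−12M) in Krebs-HEPES, pH 7.4.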

T2 sequence (P23975 whole entry): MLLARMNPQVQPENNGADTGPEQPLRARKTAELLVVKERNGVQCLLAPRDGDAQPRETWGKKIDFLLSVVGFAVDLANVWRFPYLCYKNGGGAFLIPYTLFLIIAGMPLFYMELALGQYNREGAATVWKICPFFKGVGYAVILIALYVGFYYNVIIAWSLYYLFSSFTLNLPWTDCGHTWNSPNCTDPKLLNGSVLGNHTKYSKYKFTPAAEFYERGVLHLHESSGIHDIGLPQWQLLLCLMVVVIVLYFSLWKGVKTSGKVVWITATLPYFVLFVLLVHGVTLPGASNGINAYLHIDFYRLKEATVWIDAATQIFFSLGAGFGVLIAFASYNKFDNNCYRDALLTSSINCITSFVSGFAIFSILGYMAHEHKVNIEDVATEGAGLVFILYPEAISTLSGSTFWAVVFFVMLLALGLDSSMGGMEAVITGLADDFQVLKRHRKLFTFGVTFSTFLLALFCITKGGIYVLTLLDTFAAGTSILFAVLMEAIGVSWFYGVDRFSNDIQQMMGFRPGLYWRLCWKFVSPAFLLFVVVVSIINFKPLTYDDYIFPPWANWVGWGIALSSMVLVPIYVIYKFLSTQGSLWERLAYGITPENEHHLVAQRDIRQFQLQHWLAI
T1 sequence (P31645 whole entry): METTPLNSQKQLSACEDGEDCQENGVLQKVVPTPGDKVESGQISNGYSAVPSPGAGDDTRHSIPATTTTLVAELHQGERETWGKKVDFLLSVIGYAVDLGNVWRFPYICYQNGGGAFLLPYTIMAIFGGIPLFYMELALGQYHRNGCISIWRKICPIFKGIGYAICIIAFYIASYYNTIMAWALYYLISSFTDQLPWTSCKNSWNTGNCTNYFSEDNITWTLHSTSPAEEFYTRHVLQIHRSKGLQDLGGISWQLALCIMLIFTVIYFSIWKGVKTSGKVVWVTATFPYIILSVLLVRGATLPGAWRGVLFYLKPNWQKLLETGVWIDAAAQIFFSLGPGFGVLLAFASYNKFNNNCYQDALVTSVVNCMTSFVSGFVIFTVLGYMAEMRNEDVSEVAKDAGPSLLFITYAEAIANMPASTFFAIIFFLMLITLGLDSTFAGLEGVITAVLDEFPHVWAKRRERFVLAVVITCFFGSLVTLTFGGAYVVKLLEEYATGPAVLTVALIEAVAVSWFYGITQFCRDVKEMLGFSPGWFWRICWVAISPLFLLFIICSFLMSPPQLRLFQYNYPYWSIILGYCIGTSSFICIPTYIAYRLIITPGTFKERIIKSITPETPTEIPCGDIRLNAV

On to `Fc1ccc(-c2ccccc2CO[C@H]2CCNC2)c(F)c1` [Example A-1, (S)-3-(2′,4′-Difluoro-biphenyl-2-ylmethoxy)-pyrrolidine fumarate], for which the inhibitory constant (Ki) in assay [1] turned out to be 103 nM; in assay [3] it was 10.9 nM. Further, the “% INHIBITION +/− SEM (inhibition of allodynia)” value (“% INHIBITION +/− SEM” for short) in assay [2] is given as 40.90 +/− 10.2%.
`Fc1ccc(-c2ccc(F)cc2CO[C@H]2CCNC2)c(F)c1.O=C(O)/C=C/C(=O)O` [Example A-3, (S)-3-(4,2′,4′-Trifluoro-biphenyl-2-ylmethoxy)-pyrrolidine fumarate]: the figures for the inhibition constant (Ki) in assay [1] and in assay [3] were 134 nM and 10.8 nM, respectively. Besides, the “% INHIBITION +/− SEM” value in assay [2] was 17.40 +/− 9.9%.
For the molecule `Cl.Fc1ccc(-c2cccc(F)c2F)c(CO[C@H]2CCNC2)c1` [Example A-4, (S)-3-(4,2′,3′-Trifluoro-biphenyl-2-ylmethoxy)-pyrrolidine hydrochloride], the values for the Ki in assay [1] and in assay [3] were 139 nM and 11.2 nM, respectively. Besides, the “% INHIBITION +/− SEM” value in assay [2] is recorded as 30.20 +/− 1.8%.
The like results for `Fc1cccc(-c2ccccc2CO[C@H]2CCNC2)c1F.O=C(O)/C=C/C(=O)O` [Example A-6, (S)-3-(2′,3′-Difluoro-biphenyl-2-ylmethoxy)-pyrrolidine fumarate] were, in that order, 65.6 nM, 12.9 nM and 66.20 +/− 7.8%.
`Cc1ccc(-c2ccc(F)cc2CO[C@H]2CCNC2)cc1C` [Example D-104, (S)-3-(4-Fluoro-3′,4′-dimethyl-biphenyl-2-ylmethoxy)-pyrrolidine]: the Ki was 220 nM in assay [1] and 112 nM in assay [3].
The like results for `COc1cc(-c2ccc(F)cc2CO[C@H]2CCNC2)cc(OC)c1OC` [Example D-105] were, in that order, 577 nM and 1520 nM.
The like results for `Cc1cc(F)ccc1-c1ccc(F)cc1CO[C@H]1CCNC1` [Example D-106, (S)-3-(4,4′-Difluoro-2′-methyl-biphenyl-2-ylmethoxy)-pyrrolidine] were, in that order, 372 nM and 121 nM.
The like results for `CC(C)Oc1ccc(-c2ccc(F)cc2CO[C@H]2CCNC2)cc1` [Example D-107, (S)-3-(4-Fluoro-4′-isopropoxy-biphenyl-2-ylmethoxy)-pyrrolidine] were, in that order, 386 nM and 3830 nM.
As to `Fc1ccc(-c2cccc(Cl)c2)c(CO[C@H]2CCNC2)c1` [Example D-108, (S)-3-(3′-Chloro-4-fluoro-biphenyl-2-ylmethoxy)-pyrrolidine], the Ki in assay [1] stood at 57 nM; in assay [3], 103 nM.
The like results for `CCS(=O)(=O)c1ccc(-c2ccc(F)cc2CO[C@H]2CCNC2)cc1` [Example D-109, (S)-3-(4′-Ethanesulfonyl-4-fluoro-biphenyl-2-ylmethoxy)-pyrrolidine] were, in that order, no less than 10000 nM and no less than 10000 nM.
`N#Cc1ccc(-c2ccc(F)cc2CO[C@H]2CCNC2)cc1` [Example D-110, (S)-4′-Fluoro-2′-(pyrrolidin-3-yloxymethyl)-biphenyl-4-carbonitrile]: the values for the Ki in assay [1] and in assay [3] were 1320 nM and 1200 nM, respectively.
For the molecule `Fc1ccc(-c2ccc(Cl)cc2)c(CO[C@H]2CCNC2)c1` [Example D-111, (S)-3-(4′-Chloro-4-fluoro-biphenyl-2-ylmethoxy)-pyrrolidine], the Ki in assay [1] is 155 nM; in assay [3], 97 nM.
`Cc1cc(C)n(-c2cccc(-c3ccc(F)cc3CO[C@H]3CCNC3)c2)n1` [Example D-112, (S)-1-[4′-Fluoro-2′-(pyrrolidin-3-yloxymethyl)-biphenyl-3-yl]-3,5-dimethyl-1H-pyrazole]: the Ki amounted to 107 nM in assay [1] and 9630 nM in assay [3].
The like results for `CCc1ccccc1-c1ccc(F)cc1CO[C@H]1CCNC1` [Example D-113, (S)-3-(2′-Ethyl-4-fluoro-biphenyl-2-ylmethoxy)-pyrrolidine] were, in that order, 1470 nM and 1340 nM.
The like results for `COc1cccc(-c2ccc(F)cc2CO[C@H]2CCNC2)c1` [Example D-114, (S)-3-(4-Fluoro-3′-methoxy-biphenyl-2-ylmethoxy)-pyrrolidine] were, in that order, 60 nM and 145 nM.
The like results for `COc1ccc(-c2ccc(F)cc2CO[C@H]2CCNC2)cc1` [Example D-115, (S)-3-(4-Fluoro-4′-methoxy-biphenyl-2-ylmethoxy)-pyrrolidine] were, in that order, 606 nM and 674 nM.
Take `Fc1ccc(-c2cccc(-n3cccn3)c2)c(CO[C@H]2CCNC2)c1` [Example D-116, (S)-1-[4′-Fluoro-2′-(pyrrolidin-3-yloxymethyl)-biphenyl-3-yl]-1H-pyrazole]: the inhibitory constant (Ki) in assay [1] was 38.7 nM; in assay [3], 688 nM.
For `NC(=O)c1cccc(-c2ccc(F)cc2CO[C@H]2CCNC2)c1` [Example D-117, (S)-4′-Fluoro-2′-(pyrrolidin-3-yloxymethyl)-biphenyl-3-carboxylic acid amide], the inhibitory constant (Ki) in assay [1] was 2160 nM; in assay [3], no less than 10000 nM.
In the case of `Clc1ncccc1-c1ccccc1CO[C@H]1CCNC1` [Example D-118, (S)-2-Chloro-3-[2-(pyrrolidin-3-yloxymethyl)-phenyl]-pyridine], the Ki in assay [1] was 3560 nM; in assay [3], no less than 10000 nM.
The like results for `CC(C)Oc1ncccc1-c1ccccc1CO[C@H]1CCNC1` [Example D-119, (S)-2-Isopropoxy-3-[2-(pyrrolidin-3-yloxymethyl)-phenyl]-pyridine] were, in that order, 2730 nM and 963 nM.
The like results for `CCOc1ncccc1-c1ccccc1CO[C@H]1CCNC1` [Example D-120, (S)-2-Ethoxy-3-[2-(pyrrolidin-3-yloxymethyl)-phenyl]-pyridine] were, in that order, 4230 nM and 571 nM.
The like results for `Nc1ncccc1-c1ccccc1CO[C@H]1CCNC1` [Example D-121, (S)-3-[2-(Pyrrolidin-3-yloxymethyl)-phenyl]-pyridin-2-ylamine] were, in that order, 5630 nM and no less than 10000 nM.
Take `c1ccc(-c2cccc3ncccc23)c(CO[C@H]2CCNC2)c1` [Example D-122, (S)-5-[2-(Pyrrolidin-3-yloxymethyl)-phenyl]-quinoline]: the inhibitory constant (Ki) in assay [1] stood at 769 nM; in assay [3], 659 nM.
The like results for `c1ccc(-c2cnc3[nH]ccc3c2)c(CO[C@H]2CCNC2)c1` [Example D-124, (S)-5-[2-(Pyrrolidin-3-yloxymethyl)-phenyl]-1H-pyrrolo[2,3-b]pyridine] were, in that order, 2730 nM and 7400 nM.
The like results for `N#Cc1cccc(-c2cc(F)ccc2F)c1CO[C@H]1CCNC1` [Example E-1, (S)-2′,5′-Difluoro-2-(pyrrolidin-3-yloxymethyl)-biphenyl-3-carbonitrile fumarate] were, in that order, 1120 nM and 336 nM.
The like results for `N#Cc1cccc(-c2ccc(F)cc2F)c1CO[C@H]1CCNC1` [Example E-2, (S)-2′,4′-Difluoro-2-(pyrrolidin-3-yloxymethyl)-biphenyl-3-carbonitrile fumarate] were, in that order, 3770 nM and 763 nM.
In the case of `N#Cc1cccc(-c2cccc(F)c2F)c1CO[C@H]1CCNC1` [Example E-3, (S)-2′,3′-Difluoro-2-(pyrrolidin-3-yloxymethyl)-biphenyl-3-carbonitrile fumarate], the inhibition constant (Ki) was 1570 nM in assay [1] and 560 nM in assay [3].
In the case of “(S)-1-{3-[2-Pyrrolidin-3-yloxymethyl)-phenyl]-pyridin-2-yl}-piperazine [Example D-125]”, the values for the inhibition constant (Ki) in assay [1] and in assay [3] were 6930 nM and no less than 10000 nM, respectively.
